Assay results from ChEMBL document CHEMBL1201862, “PubChem BioAssay data set” (2004).
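Five concentrations, 48 hours, 96-well plates. The concentration for 50% growth inhibition is given as GI50.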 The source made the active and inactive calls. Rule as the data show it: active = GI50 up to about 1.1 µM and inactive = higher.

Key:
Experiment in all cases: growth of human tumour cells (NCI), 48 h
786-0 = test system: 786-0
A549 = test system: A549
ACHN = test system: ACHN
CCRF-CEM = test system: CCRF-CEM
COLO 205 = test system: COLO 205
DU-145 = test system: DU-145
HCC 2998 = test system: HCC 2998
HCT-116 = test system: HCT-116
HCT-15 = test system: HCT-15
HL-60 = test system: HL-60
HOP-62 = test system: HOP-62
HOP-92 = test system: HOP-92
HT-29 = test system: HT-29
Hs-578T = test system: Hs-578T
IGROV-1 = test system: IGROV-1
K562 = test system: K562
KM12 = test system: KM12
LOX IMVI = test system: LOX IMVI
M14 = test system: M14
MCF7 = test system: MCF7
MDA-MB-231 = test system: MDA-MB-231
MDA-MB-435 = test system: MDA-MB-435
MDA-N = test system: MDA-N
MOLT-4 = test system: MOLT-4
Malme-3M = test system: Malme-3M
NCI-H226 = test system: NCI-H226
NCI-H23 = test system: NCI-H23
NCI-H460 = test system: NCI-H460
NCI-H522 = test system: NCI-H522
NCI/ADR-RES = test system: NCI/ADR-RES
OVCAR-3 = test system: OVCAR-3
OVCAR-4 = test system: OVCAR-4
OVCAR-5 = test system: OVCAR-5
OVCAR-8 = test system: OVCAR-8
PC-3 = test system: PC-3
RPMI-8226 = test system: RPMI-8226
RXF 393 = test system: RXF 393
SF-268 = test system: SF-268
SF-295 = test system: SF-295
SF-539 = test system: SF-539
SK-MEL-28 = test system: SK-MEL-28
SK-MEL-2 = test system: SK-MEL-2
SK-MEL-5 = test system: SK-MEL-5
SK-OV-3 = test system: SK-OV-3
SN12C = test system: SN12C
SNB-19 = test system: SNB-19
SNB-75 = test system: SNB-75
SR = test system: SR
SW-620 = test system: SW-620
T47D = test system: T47D
TK-10 = test system: TK-10
U-251 = test system: U-251
UACC-257 = test system: UACC-257
UO-31 = test system: UO-31

CCOC(=O)Cn1c(=O)c2nc(SC)sc2n(CC)c1=S
GI50 (786-0): 0.173 µM (active) | GI50 (A549): > 100 µM (inactive) | GI50 (ACHN): > 100 µM (inactive) | GI50 (CCRF-CEM): > 100 µM (inactive) | GI50 (COLO 205): > 100 µM (inactive) | GI50 (DU-145): > 100 µM (inactive) | GI50 (HCC 2998): > 100 µM (inactive) | GI50 (HCT-116): > 100 µM (inactive) | GI50 (HCT-15): 65.5 µM | GI50 (HL-60): > 100 µM (inactive) | GI50 (HOP-62): > 100 µM (inactive) | GI50 (HOP-92): 82.6 µM (inactive) | GI50 (HT-29): > 100 µM (inactive) | GI50 (Hs-578T): 22.1 µM (inactive) | GI50 (IGROV-1): 94 µM (inactive) | GI50 (K562): > 100 µM (inactive) | GI50 (KM12): > 100 µM (inactive) | GI50 (LOX IMVI): > 100 µM (inactive) | GI50 (M14): 5.78 µM (inactive) | GI50 (MCF7): > 100 µM (inactive) | GI50 (MDA-MB-231): > 100 µM (inactive) | GI50 (MDA-MB-435): 1.71 µM (inactive) | GI50 (MDA-N): > 100 µM (inactive) | GI50 (MOLT-4): > 100 µM (inactive) | GI50 (Malme-3M): > 100 µM (inactive) | GI50 (NCI-H226): > 100 µM (inactive) | GI50 (NCI-H23): > 100 µM (inactive) | GI50 (NCI-H460): > 100 µM (inactive) | GI50 (NCI-H522): > 100 µM (inactive) | GI50 (NCI/ADR-RES): > 100 µM (inactive) | GI50 (OVCAR-3): > 100 µM (inactive) | GI50 (OVCAR-4): 59.8 µM (inactive) | GI50 (OVCAR-5): > 100 µM (inactive) | GI50 (OVCAR-8): > 100 µM (inactive) | GI50 (PC-3): > 100 µM (inactive) | GI50 (RPMI-8226): > 100 µM (inactive) | GI50 (RXF 393): 36.8 µM (inactive) | GI50 (SF-268): > 100 µM (inactive) | GI50 (SF-295): > 100 µM (inactive) | GI50 (SF-539): > 100 µM (inactive) | GI50 (SK-MEL-28): > 100 µM (inactive) | GI50 (SK-MEL-2): > 100 µM (inactive) | GI50 (SK-MEL-5): > 100 µM (inactive) | GI50 (SK-OV-3): > 100 µM (inactive) | GI50 (SN12C): > 100 µM (inactive) | GI50 (SNB-19): > 100 µM (inactive) | GI50 (SNB-75): 9.38 µM (inactive) | GI50 (SR): > 100 µM (inactive) | GI50 (SW-620): > 100 µM (inactive) | GI50 (T47D): 61 µM (inactive) | GI50 (TK-10): > 100 µM (inactive) | GI50 (U-251): > 100 µM (inactive) | GI50 (UACC-257): > 100 µM (inactive) | GI50 (UO-31): 14.2 µM (inactive)
